pIC50: −log10 of the molar value. Like-named read-outs stand apart in the source and are kept apart here.
Biological target: T1, human ENT1 (Homo sapiens, UniProt Q99808)
T1 construct: JAR cells expressing ENT1 were purchased from ATCC; host or cells: JAR cells
T1 sequence (Q99808 1-456): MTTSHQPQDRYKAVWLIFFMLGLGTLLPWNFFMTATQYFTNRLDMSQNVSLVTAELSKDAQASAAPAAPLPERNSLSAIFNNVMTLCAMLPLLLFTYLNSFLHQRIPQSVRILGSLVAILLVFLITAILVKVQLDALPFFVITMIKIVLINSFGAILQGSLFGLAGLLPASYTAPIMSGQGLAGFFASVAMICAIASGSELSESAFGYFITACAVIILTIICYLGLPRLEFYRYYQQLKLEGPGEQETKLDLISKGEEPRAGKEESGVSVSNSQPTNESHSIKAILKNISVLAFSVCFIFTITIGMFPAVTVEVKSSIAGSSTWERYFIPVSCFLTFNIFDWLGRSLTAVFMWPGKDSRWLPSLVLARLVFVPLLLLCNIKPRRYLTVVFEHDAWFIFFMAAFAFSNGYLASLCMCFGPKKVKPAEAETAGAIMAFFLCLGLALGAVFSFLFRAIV
Assay: ENT1 binding assay (competition with Sahenta-DY647 on JAR cells)
Conditions: IC50 categorized
In short: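 Whole-cell competition on JAR cells (native ENT1): 50,000 cells pre-incubated 30 min at 4 °C with compound in HBSS/10 mM Hepes/0.1% BSA, then 100 nM Sahenta-DY647 added for 30 min at 4 °C. After washing, fluorescence (Ex 630/Em 670 nm) read; IC50 from sigmoidal fit, averaged as pIC50.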

[1] = competition with SAHENTA-DY647 binding, read-out: Binding Assay IC50

SMILES	pIC50 [1]	pIC50 (Binding Assay IC50, competition with SAHENTA-DY647 binding)
C[C@H]1O[C@@H](n2cnc3c(COc4ccc(C#N)cc4)ncnc32)[C@H](O)[C@@H]1O [Compound 280]		< 6.30
C[C@H]1O[C@@H](n2cnc3c(COc4ccc(OCF)cc4)ncnc32)[C@H](O)[C@@H]1O [Compound 296]	< 6.30	
CNS(=O)(=O)c1ccc(CSc2ncnc3c2ncn3[C@@H]2O[C@H](C)[C@@H](O)[C@H]2O)cc1 [Compound 297]	< 6.30	
C[C@H]1O[C@@H](n2cnc3c(C(=O)NCc4ccc(C(F)(F)F)cc4)ncnc32)[C@H](O)[C@@H]1O [Compound 298]	< 6.30	
C[C@H]1O[C@@H](n2cnc3c(N4CCN(c5ccc([N+](=O)[O-])cc5)CC4)ncnc32)[C@H](O)[C@@H]1O [Compound 299]	< 6.30	
C[C@H]1O[C@@H](n2cnc3c(SCc4cscn4)ncnc32)[C@H](O)[C@@H]1O [Compound 300]	< 6.30	
C[C@H]1O[C@@H](n2cnc3c(C(=O)NCc4ccc(OC(F)F)cc4)ncnc32)[C@H](O)[C@@H]1O [Compound 301]	< 6.30	
C[C@H]1O[C@@H](n2cnc3c(C(=O)N4CCc5cc([N+](=O)[O-])ccc5C4)ncnc32)[C@H](O)[C@@H]1O [Compound 302]	< 6.30	
OC[C@@H]1C[C@@H](O)[C@H](n2cnc3c(OCc4ccc(OC(F)F)cc4)ncnc32)O1 [Compound 303]	< 6.30	
CC(NC(=O)c1ncnc2c1ncn2[C@@H]1O[C@H](C)[C@@H](O)[C@H]1O)c1ccc([N+](=O)[O-])cc1 (stereo partly shown) [Compound 305]	< 6.30	
C[C@H]1O[C@@H](n2cnc3c(SCc4cccc(OC5CC5)c4)ncnc32)[C@H](O)[C@@H]1O [Compound 306]	< 6.30	
C[C@H]1O[C@@H](n2cnc3c(OCc4ccc(C(F)(F)F)cc4Cl)ncnc32)[C@H](O)[C@@H]1O [Compound 307]	< 6.30	
C[C@H]1O[C@@H](n2cnc3c(SCc4ccc5ccncc5c4)ncnc32)[C@H](O)[C@@H]1O [Compound 308]	< 6.30	
O=[N+]([O-])c1ccc(COc2ncnc3c2nnn3[C@@H]2C[C@H](OCCO)[C@@H](O)[C@H]2O)cc1 [Compound 309]	< 6.30	
C[C@H]1O[C@@H](n2cnc3c(SCc4nc(-c5ccccc5Cl)no4)ncnc32)[C@H](O)[C@@H]1O [Compound 310]	< 6.30	
C[C@H]1O[C@@H](n2cnc3c(SCc4cnc(C(F)(F)F)nc4)ncnc32)[C@H](O)[C@@H]1O [Compound 311]	< 6.30	
C[C@H]1O[C@@H](n2cnc3c(C(=O)NCc4ccc([N+](=O)[O-])cc4)ncnc32)[C@H](O)[C@@H]1O [Compound 312]	< 6.30	
C[C@H]1O[C@@H](n2cnc3c(OCc4ccc5c(c4)OCC5)ncnc32)[C@H](O)[C@@H]1O [Compound 313]	< 6.30	

SMILES	pIC50 [1]	pIC50 (Binding Assay IC50, competition with SAHENTA-DY647 binding)
C[C@H]1O[C@@H](n2cnc3c(OCc4ccc(-n5cncn5)cc4)ncnc32)[C@H](O)[C@@H]1O [Compound 314]	< 6.30	
C[C@H]1O[C@@H](n2cnc3c(N4CCC(c5ccc([N+](=O)[O-])cc5)C4)ncnc32)[C@H](O)[C@@H]1O (stereo partly shown) [Compound 315]	< 6.30	
C[C@H]1O[C@@H](n2cnc3c(OCc4ccc(-n5ccnc5)cc4)ncnc32)[C@H](O)[C@@H]1O [Compound 316]	< 6.30	
C[C@H]1O[C@@H](n2cnc3c(CN4Cc5ccc(C#N)cc5C4)ncnc32)[C@H](O)[C@@H]1O [Compound 317]	< 6.30	
C[C@H]1O[C@@H](n2cnc3c(NCc4cccc(C(F)F)c4)ncnc32)[C@H](O)[C@@H]1O [Compound 318]	< 6.30	
C[C@H]1O[C@@H](n2cnc3c(OCCc4ccc(C#N)nc4)ncnc32)[C@H](O)[C@@H]1O [Compound 319]	< 6.30	
Cc1ccc(CNc2ncnc3c2ncn3[C@@H]2O[C@H](C)[C@@H](O)[C@H]2O)cc1C [Compound 320]	< 6.30	
C[C@H]1O[C@@H](n2cnc3c(OCc4cscn4)ncnc32)[C@H](O)[C@@H]1O [Compound 321]	< 6.30	
C[C@H]1O[C@@H](n2cnc3c(NCc4ccc5c(c4)CCC5)ncnc32)[C@H](O)[C@@H]1O [Compound 322]	< 6.30	
C[C@H]1O[C@@H](n2cnc3c(OCc4ccccc4C(F)(F)F)ncnc32)[C@H](O)[C@@H]1O [Compound 323]	< 6.30	
C[C@H]1O[C@@H](n2cnc3c(N(C)CCc4ccc([N+](=O)[O-])cc4)ncnc32)[C@H](O)[C@@H]1O [Compound 324]	< 6.30	
COc1ccccc1COc1ncnc2c1ncn2[C@@H]1O[C@H](C)[C@@H](O)[C@H]1O [Compound 325]	< 6.30	
C[C@H]1O[C@@H](n2cnc3c(NCc4ccc(-n5ccnn5)cc4)ncnc32)[C@H](O)[C@@H]1O [Compound 326]	< 6.30	
C[C@H]1O[C@@H](n2cnc3c(N[C@H]4C[C@@H]4c4ccc(Cl)cc4)ncnc32)[C@H](O)[C@@H]1O [Compound 327]	< 6.30	
C[C@H]1O[C@@H](n2cnc3c(OCc4ccc(-n5cccn5)cc4)ncnc32)[C@H](O)[C@@H]1O [Compound 328]	< 6.30	
CN(C)C(=O)[C@H]1O[C@@H](n2cnc3c(OCc4ccc([N+](=O)[O-])cc4)ncnc32)[C@H](O)[C@@H]1O [Compound 329]	< 6.30	
C[C@H]1O[C@@H](n2cnc3c(C(=O)NCc4ccc(Cl)cc4F)ncnc32)[C@H](O)[C@@H]1O [Compound 330]	< 6.30	

Second part, led by results:

pIC50 [1]	SMILES	pIC50 (Binding Assay IC50, competition with SAHENTA-DY647 binding)
< 6.30	C[C@H]1O[C@@H](n2cnc3c(OCCc4cc(F)c(Cl)c(F)c4)ncnc32)[C@H](O)[C@@H]1O [Compound 268]	
< 6.30	C[C@H]1O[C@@H](n2cnc3c(OCc4c(F)cc(C#N)cc4F)ncnc32)[C@H](O)[C@@H]1O [Compound 269]	
< 6.30	C[C@H]1O[C@@H](n2cnc3c(SCc4ccc(C(F)(F)F)nc4)ncnc32)[C@H](O)[C@@H]1O [Compound 270]	
< 6.30	O=C(NCCO)[C@H]1O[C@@H](n2cnc3c(OCc4ccc([N+](=O)[O-])cc4)ncnc32)[C@H](O)[C@@H]1O [Compound 271]	
< 6.30	Cc1cc(CSc2ncnc3c2ncn3[C@@H]2O[C@H](C)[C@@H](O)[C@H]2O)cc(C)c1F [Compound 272]	
< 6.30	C[C@H]1O[C@@H](n2cnc3c(SCc4cccc(S(N)(=O)=O)c4)ncnc32)[C@H](O)[C@@H]1O [Compound 273]	
< 6.30	C[C@H]1O[C@@H](n2cnc3c(OCc4cccc(C(F)(F)F)c4)ncnc32)[C@H](O)[C@@H]1O [Compound 274]	
< 6.30	C[C@H]1O[C@@H](n2cnc3c(OCCc4cccc([N+](=O)[O-])c4)ncnc32)[C@H](O)[C@@H]1O [Compound 275]	
< 6.30	C[C@H]1O[C@@H](n2cnc3c(OCCc4ccc(OC(F)F)cc4)ncnc32)[C@H](O)[C@@H]1O [Compound 276]	
< 6.30	C[C@H]1O[C@@H](n2cnc3c(NCc4ccc(S(C)(=O)=O)cc4)ncnc32)[C@H](O)[C@@H]1O [Compound 277]	
< 6.30	C[C@H]1O[C@@H](n2cnc3c(OCCc4ccc(OC(F)F)nc4)ncnc32)[C@H](O)[C@@H]1O [Compound 278]	
< 6.30	CNC(=O)[C@H]1O[C@@H](n2cnc3c(OCc4ccc([N+](=O)[O-])cc4)ncnc32)[C@H](O)[C@@H]1O [Compound 279]	
< 6.30	C[C@H]1O[C@@H](n2cnc3c(OCc4ccc([N+](=O)[O-])cn4)ncnc32)[C@H](O)[C@@H]1O [Compound 281]	
< 6.30	C[C@H]1O[C@@H](n2cnc3c(NCc4ccc(C(F)(F)F)c(Cl)c4)ncnc32)[C@H](O)[C@@H]1O [Compound 282]	
< 6.30	COc1nc(OCc2ccc([N+](=O)[O-])cc2)c2ncn([C@@H]3O[C@H](C)[C@@H](O)[C@H]3O)c2n1 [Compound 283]	
< 6.30	C[C@H]1O[C@@H](n2cnc3c(OCc4cc(F)c(C#N)c(F)c4)nc(Cl)nc32)[C@H](O)[C@@H]1O [Compound 284]	
< 6.30	C[C@H]1O[C@@H](n2cnc3c(COc4ccc(Cl)cc4)ncnc32)[C@H](O)[C@@H]1O [Compound 285]	
< 6.30	NC[C@H]1O[C@@H](n2cnc3c(SCc4ccc([N+](=O)[O-])cc4)ncnc32)[C@H](O)[C@@H]1O [Compound 287]	
< 6.30	C[C@H]1O[C@@H](n2cnc3c(COc4ccc(OC(F)(F)F)cc4)ncnc32)[C@H](O)[C@@H]1O [Compound 288]	
< 6.30	Cc1cc(CSc2ncnc3c2ncn3[C@@H]2O[C@H](C)[C@@H](O)[C@H]2O)n(C)n1 [Compound 289]	
< 6.30	C[C@H]1O[C@@H](n2cnc3c(COCc4ccc(Cl)cc4)ncnc32)[C@H](O)[C@@H]1O [Compound 290]	
< 6.30	C[C@H]1O[C@@H](n2cnc3c(OCc4ccc(-c5cnco5)cc4)ncnc32)[C@H](O)[C@@H]1O [Compound 291]	
< 6.30	CN(CCO)C(=O)[C@H]1O[C@@H](n2cnc3c(OCc4ccc([N+](=O)[O-])cc4)ncnc32)[C@H](O)[C@@H]1O [Compound 292]	
< 6.30	C[C@H]1O[C@@H](n2cnc3c(OCCc4ccc(Cl)cc4)ncnc32)[C@H](O)[C@@H]1O [Compound 293]	
< 6.30	C[C@H]1O[C@@H](n2cnc3c(OCCc4ccc(CF)cc4)ncnc32)[C@H](O)[C@@H]1O [Compound 294]	
< 6.30	C[C@H]1O[C@@H](n2cnc3c(C(=O)NCc4ccc(OC(F)(F)F)cc4)ncnc32)[C@H](O)[C@@H]1O [Compound 295]	
